Laboratory results published in publication doi:10.1101/2021.09.30.462449v1 (biorxiv, 2021).

Columns and labels:
Test in all cases: biochemical
Conditions in all cases: read-out: % inhibition mean (Z'Lyte)
[1] = biological target: ACVR1B (ALK4) (Homo sapiens, UniProt P36896)
[2] = biological target: AMPK A2/B1/G1 (Homo sapiens, UniProt P54646)
[3] = biological target: EPHA2 (Homo sapiens, UniProt P29317)
[4] = biological target: ERBB2 (HER2) (Homo sapiens, UniProt P04626)
[5] = biological target: FGFR3 K650E (Homo sapiens, UniProt P22607, K650E)
[6] = biological target: FGR (Homo sapiens, UniProt P09769)
[7] = biological target: GRK6 (Homo sapiens, UniProt P43250)
[8] = biological target: HCK (Homo sapiens, UniProt P08631)
[9] = biological target: HIPK4 (Homo sapiens, UniProt Q8NE63)
[10] = biological target: JAK1 (Homo sapiens, UniProt P23458)
[11] = biological target: JAK2 JH1 JH2 (Homo sapiens, UniProt O60674)
[12] = biological target: LCK (Homo sapiens, UniProt P06239)
[13] = biological target: LYN A (Homo sapiens, UniProt P07948)
[14] = biological target: MAP4K2 (GCK) (Homo sapiens, UniProt Q12851)
[15] = biological target: MAPK1 (ERK2) (Homo sapiens, UniProt P28482)
[16] = biological target: MAPK10 (JNK3) (Homo sapiens, UniProt P53779)
[17] = biological target: MAPK7 (ERK5) (Homo sapiens, UniProt Q13164)
[18] = biological target: MAPK8 (JNK1) (Homo sapiens, UniProt P45983)
[19] = biological target: MET M1250T (Homo sapiens, UniProt P08581, M1250T)
[20] = biological target: NEK6 (Homo sapiens, UniProt Q9HC98)
[21] = biological target: NTRK2 (TRKB) (Homo sapiens, UniProt Q16620)
[22] = biological target: PASK (Homo sapiens, UniProt Q96RG2)
[23] = biological target: PLK1 (Homo sapiens, UniProt P53350)
[24] = biological target: PRKCQ (PKC theta) (Homo sapiens, UniProt Q04759)
[25] = biological target: PRKD2 (PKD2) (Homo sapiens, UniProt Q9BZL6)
[26] = biological target: RET A883F (Homo sapiens, UniProt P07949, A883F)
[27] = biological target: RET V804L (Homo sapiens, UniProt P07949, V804L)
[28] = biological target: SRPK2 (Homo sapiens, UniProt P78362)
[29] = biological target: TYRO3 (RSE) (Homo sapiens, UniProt Q06418)

Chain of MAP4K2 (GCK) (Q12851 whole entry): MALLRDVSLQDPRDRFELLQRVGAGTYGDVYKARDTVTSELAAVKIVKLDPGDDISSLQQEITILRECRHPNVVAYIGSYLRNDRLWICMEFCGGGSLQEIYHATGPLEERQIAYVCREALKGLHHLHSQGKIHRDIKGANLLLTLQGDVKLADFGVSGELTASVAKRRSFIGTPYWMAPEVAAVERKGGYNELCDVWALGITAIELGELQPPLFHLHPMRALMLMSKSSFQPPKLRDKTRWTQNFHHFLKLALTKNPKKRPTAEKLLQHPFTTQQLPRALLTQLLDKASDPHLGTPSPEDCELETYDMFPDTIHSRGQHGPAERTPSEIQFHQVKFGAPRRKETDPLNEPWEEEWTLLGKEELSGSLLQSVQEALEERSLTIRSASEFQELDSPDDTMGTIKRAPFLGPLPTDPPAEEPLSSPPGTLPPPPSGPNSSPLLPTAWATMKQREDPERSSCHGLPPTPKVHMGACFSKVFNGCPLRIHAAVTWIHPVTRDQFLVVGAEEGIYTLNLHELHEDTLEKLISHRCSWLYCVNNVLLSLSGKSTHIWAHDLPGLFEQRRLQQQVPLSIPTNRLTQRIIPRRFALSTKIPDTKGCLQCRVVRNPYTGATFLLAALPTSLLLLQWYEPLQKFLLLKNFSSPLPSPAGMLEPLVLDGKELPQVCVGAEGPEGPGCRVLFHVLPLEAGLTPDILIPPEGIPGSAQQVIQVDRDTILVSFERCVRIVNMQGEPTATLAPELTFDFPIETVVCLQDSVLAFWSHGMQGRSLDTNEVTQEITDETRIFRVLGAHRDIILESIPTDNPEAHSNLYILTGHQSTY
Chain of LCK (P06239 whole entry): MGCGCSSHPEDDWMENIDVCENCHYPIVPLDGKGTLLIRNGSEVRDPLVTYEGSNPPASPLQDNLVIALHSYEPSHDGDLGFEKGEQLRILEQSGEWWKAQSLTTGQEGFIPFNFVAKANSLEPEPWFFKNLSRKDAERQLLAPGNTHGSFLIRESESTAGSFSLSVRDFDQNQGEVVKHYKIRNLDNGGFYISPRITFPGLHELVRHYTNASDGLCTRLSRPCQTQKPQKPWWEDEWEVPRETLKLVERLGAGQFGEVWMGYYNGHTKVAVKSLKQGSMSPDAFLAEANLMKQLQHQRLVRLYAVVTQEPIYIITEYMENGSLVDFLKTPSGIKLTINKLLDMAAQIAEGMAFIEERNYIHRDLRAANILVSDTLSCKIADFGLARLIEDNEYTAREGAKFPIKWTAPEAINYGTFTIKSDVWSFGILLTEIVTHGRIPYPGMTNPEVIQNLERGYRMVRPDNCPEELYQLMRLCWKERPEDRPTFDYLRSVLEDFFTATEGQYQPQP
Chain of EPHA2 (P29317 whole entry): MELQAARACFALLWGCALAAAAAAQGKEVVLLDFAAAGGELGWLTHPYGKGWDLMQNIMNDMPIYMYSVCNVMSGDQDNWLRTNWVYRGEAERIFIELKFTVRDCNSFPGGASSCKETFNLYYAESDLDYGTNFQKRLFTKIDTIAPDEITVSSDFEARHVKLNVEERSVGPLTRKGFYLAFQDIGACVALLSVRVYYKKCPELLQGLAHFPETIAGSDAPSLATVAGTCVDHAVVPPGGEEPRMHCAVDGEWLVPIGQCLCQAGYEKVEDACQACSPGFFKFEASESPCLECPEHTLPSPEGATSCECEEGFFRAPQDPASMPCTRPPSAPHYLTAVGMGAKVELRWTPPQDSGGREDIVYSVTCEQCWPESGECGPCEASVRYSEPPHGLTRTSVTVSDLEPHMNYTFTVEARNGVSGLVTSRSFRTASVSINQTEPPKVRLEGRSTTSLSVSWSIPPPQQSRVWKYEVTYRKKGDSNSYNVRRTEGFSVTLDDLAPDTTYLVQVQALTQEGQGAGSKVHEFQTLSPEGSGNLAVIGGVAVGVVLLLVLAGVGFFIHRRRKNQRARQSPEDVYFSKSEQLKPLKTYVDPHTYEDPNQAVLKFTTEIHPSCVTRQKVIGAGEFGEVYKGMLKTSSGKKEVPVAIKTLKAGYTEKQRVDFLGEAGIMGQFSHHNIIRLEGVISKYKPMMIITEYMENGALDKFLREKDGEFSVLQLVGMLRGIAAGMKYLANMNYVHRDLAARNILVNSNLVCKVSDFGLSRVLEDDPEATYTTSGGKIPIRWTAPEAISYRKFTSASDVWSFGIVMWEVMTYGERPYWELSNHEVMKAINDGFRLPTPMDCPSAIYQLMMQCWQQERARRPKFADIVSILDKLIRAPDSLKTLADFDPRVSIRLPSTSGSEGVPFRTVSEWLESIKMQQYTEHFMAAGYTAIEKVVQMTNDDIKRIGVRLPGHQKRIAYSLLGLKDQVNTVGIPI
Chain of HIPK4 (Q8NE63 whole entry): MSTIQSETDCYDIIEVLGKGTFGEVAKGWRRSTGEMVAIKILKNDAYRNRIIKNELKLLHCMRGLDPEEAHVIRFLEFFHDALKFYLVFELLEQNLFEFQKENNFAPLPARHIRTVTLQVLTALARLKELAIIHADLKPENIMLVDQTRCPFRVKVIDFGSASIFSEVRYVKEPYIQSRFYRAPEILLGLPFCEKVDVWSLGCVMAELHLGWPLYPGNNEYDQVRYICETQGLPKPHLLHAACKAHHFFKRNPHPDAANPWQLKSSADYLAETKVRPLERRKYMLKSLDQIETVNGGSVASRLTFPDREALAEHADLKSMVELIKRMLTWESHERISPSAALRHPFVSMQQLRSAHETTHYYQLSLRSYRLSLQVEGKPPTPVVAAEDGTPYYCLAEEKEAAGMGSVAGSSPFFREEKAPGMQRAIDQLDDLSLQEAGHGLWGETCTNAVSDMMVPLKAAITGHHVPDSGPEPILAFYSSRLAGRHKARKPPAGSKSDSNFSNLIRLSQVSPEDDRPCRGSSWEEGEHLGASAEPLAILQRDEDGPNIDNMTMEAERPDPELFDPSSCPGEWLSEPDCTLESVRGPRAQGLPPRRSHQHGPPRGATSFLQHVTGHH
Chain of PLK1 (P53350 whole entry): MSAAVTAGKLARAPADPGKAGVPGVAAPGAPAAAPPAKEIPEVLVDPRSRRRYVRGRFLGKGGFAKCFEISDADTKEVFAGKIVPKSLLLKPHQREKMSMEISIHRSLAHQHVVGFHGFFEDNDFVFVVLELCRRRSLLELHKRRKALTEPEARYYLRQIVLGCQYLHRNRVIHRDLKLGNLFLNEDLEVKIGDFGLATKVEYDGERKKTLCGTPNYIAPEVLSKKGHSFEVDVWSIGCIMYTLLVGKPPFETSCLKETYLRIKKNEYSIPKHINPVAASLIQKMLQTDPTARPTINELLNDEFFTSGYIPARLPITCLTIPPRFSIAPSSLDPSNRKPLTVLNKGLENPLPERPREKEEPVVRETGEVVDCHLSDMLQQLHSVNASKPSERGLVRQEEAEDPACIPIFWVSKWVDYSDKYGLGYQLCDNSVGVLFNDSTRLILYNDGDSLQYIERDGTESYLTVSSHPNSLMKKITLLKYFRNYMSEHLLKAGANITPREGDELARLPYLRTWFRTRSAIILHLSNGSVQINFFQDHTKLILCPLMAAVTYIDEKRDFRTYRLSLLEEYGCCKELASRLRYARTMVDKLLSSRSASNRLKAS
Chain of MET M1250T (P08581 whole entry M1250T): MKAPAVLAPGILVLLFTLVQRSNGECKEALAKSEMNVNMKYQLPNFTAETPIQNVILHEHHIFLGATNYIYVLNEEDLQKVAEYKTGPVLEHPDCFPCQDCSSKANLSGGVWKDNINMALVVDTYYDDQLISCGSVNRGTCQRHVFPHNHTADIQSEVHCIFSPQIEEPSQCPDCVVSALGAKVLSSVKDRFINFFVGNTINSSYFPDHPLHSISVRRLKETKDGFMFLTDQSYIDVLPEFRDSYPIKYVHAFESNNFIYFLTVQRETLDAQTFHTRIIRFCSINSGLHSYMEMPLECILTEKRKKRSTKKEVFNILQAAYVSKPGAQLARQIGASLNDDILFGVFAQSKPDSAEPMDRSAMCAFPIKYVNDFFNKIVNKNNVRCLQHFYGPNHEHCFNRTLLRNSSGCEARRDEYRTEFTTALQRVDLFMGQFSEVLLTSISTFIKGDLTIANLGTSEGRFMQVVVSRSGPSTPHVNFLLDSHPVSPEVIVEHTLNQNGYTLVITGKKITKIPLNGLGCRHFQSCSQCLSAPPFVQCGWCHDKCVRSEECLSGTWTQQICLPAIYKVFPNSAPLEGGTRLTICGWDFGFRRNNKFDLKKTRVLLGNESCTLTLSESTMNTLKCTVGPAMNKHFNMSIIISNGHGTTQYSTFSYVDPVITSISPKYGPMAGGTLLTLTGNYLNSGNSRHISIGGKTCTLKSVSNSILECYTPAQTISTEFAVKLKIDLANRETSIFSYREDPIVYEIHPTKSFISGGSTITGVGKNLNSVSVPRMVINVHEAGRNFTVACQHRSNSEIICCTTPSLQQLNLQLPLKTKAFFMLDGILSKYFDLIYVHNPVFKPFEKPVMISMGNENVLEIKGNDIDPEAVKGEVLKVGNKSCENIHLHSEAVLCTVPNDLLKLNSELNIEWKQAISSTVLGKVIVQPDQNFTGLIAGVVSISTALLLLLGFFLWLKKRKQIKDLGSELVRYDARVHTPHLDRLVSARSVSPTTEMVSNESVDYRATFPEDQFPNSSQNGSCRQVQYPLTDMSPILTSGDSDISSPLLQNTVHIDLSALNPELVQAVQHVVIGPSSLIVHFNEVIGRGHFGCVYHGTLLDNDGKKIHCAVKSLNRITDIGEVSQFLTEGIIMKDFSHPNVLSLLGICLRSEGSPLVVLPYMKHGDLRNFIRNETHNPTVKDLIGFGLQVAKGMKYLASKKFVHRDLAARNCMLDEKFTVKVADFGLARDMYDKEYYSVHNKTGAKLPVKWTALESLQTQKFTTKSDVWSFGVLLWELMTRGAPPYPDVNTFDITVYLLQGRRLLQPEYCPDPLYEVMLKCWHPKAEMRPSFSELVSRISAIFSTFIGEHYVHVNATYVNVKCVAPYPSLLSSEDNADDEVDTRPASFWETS

`COc1ccc2nc3cc(Cl)ccc3c(Nc3cc(CN4CCCC4)c(O)c(CN4CCCC4)c3)c2n1` [Pyronaridine, 4-[(7-Chloro-2-methoxybenzo[b][1,5]naphthyridin-10-yl)amino]-2,6-bis(1-pyrrolidinylmethyl)phenol phosphate (1:4)] was tested, and the inhibition at 1 µM [1] was -1%, the inhibition at 1 µM [2] was 2% and the inhibition at 1 µM [3] was 5%. It also gave an inhibition at 1 µM [4] of 2%, an inhibition at 1 µM [5] of -4% and an inhibition at 1 µM [6] of 11%. The inhibition at 1 µM [7] was -1%, the inhibition at 1 µM [8] was 4% and the inhibition at 1 µM [9] was 5%. For the same compound, the inhibition at 1 µM [10] was 0%, the inhibition at 1 µM [11] was -3% and the inhibition at 1 µM [12] was 12%. It also gave an inhibition at 1 µM [13] of -2%, an inhibition at 1 µM [14] of 5% and an inhibition at 1 µM [15] of -1%. The inhibition at 1 µM [16] was 0%, the inhibition at 1 µM [17] was 5% and the inhibition at 1 µM [18] was 3%. The inhibition at 1 µM [19] was 0%, the inhibition at 1 µM [20] was -3% and the inhibition at 1 µM [21] was 1%. For the same compound, the inhibition at 1 µM [22] was -4%, the inhibition at 1 µM [23] was 6% and the inhibition at 1 µM [24] was 8%. It also gave an inhibition at 1 µM [25] of -4%, an inhibition at 1 µM [26] of -1% and an inhibition at 1 µM [27] of 1%. It also gave an inhibition at 1 µM [28] of -4% and an inhibition at 1 µM [29] of -5%.
